Results published in paper PMC5716539, “The acute glucose lowering effect of specific GPR120 activation in mice is mainly driven by glucagon-like peptide 1” (PLoS ONE, 2017).
Where two headings read alike, the source gives them in different places.

How the values were obtained:
[1] = system: GPR120; set-up: method as in PMID 24997608; details: read-out: EC50 in β-arrestin; cited from earlier work
[2] = system: GPR120; set-up: method as in PMID 24997608; details: read-out: EC50 in calcium mobilization; cited from earlier work
[3] = system: dispersed wt mouse islets cell; assay: cAMP production in dispersed wild type mouse islet cells; format: cell-based; details: 50 nM Exendin-4
Protocol: (§1) Mouse islets were isolated from pancreas by collagenase digestion, handpicked under microscope following multiple washing steps and dispersed to single cells using TrypLE Express (Gibco). The dispersed islet cells (20 000 cells/well) were incubated with the GPR120 agonists for 30 min in 96-well black plates (Corning) at 37°C in Krebs ringer phosphate Hepes buffer, pH 7.4, with 11 mM Glucose, 0.1% BSA and 0.5 mM 3-isobutyl-1-methylxanthine followed by addition of d2-labeled cAMP and anti-cAMP Cryptate in conjugation and lysis buffer (Cisbio). Produced cAMP was detected with homogenous time resolved fluorescence (HTRF) (λex = 340 nm, λem = 665 and 615 nm) using a Pherastar (BMG Labtech).

[4] = system: islets from GPR120 null mice; assay: cAMP production in dispersed islet cells from GPR120 null mice; format: cell-based, mouse; details: 50 nM Exendin-4
Protocol: as §1

[5] = system: lean female mice; assay: Intravenous glucose tolerance test (IVGTT) in lean female mice; format: in vivo, mouse; details: 30 nmol/kg i.p. 15 min prior to IVGTT; trend towards lower response
Protocol: Lean female mice (body weight 20–25 g), were randomized on body weight and fasted 4 hours prior to the IVGTT. Metabolex-36 (100 mg/kg) was administered orally 60 min and AZ13581837 (35mg/kg) 30 min before the IVGTT ([…]). Control mice were given vehicle (0.5% HPMC, 0.1% Tween-80) at corresponding time points. The specificity of AZ13581837 was examined in IVGTT in GPR120 null mice. GPR120 agonist doses were selected to reach plasma levels of at least 10 times over the in vitro EC50 value to achieve maximal activation of GPR120 (S2 Appendix). Thirty minutes prior to the glucose load, the mice were anaesthetised (20 mg/kg fluanisone/0.8 mg/kg fentanyl (Hypnorm®, Janssen, Beerse, Belgium) and 10 mg/kg midazolam (Dormicum®, Hoffman-LaRoche, Basel, Switzerland)) to allow for rapid blood sampling. The mice were kept at a heating pad to maintain body temperature.
In separate experiments, mice were pretreated with the GLP-1 receptor antagonist exendin 9–39 (30 nmol/kg, Bachem; intraperitoneally) alone or in combination with the GPR120 agonists, 15 min prior to the IVGTT. Insulin and glucose were measured 0, 1, 5, 10, 20 and 40 min after intravenous (iv) glucose administration. In separate groups of mice total GLP-1 levels were measured 60 min after oral administration of Metabolex-36 or 30 min after AZ13581837 and in corresponding vehicle (0.5% HPMC, 0.1% Tween-80) dosed mice. Blood samples were collected in EDTA coated tubes, centrifuged at 10000xg for 4 min, and plasma was separated and stored frozen until analyzed.
In the IVGTT, the acute insulin response (AIR) was calculated as the mean of suprabasal 1 and 5 min values, and the glucose elimination was quantified using the glucose elimination constant (KG) calculated as the slope of the logarithmic transformation of circulating glucose between 1 and 20 min after the glucose bolus. Multiple comparisons between the different groups were performed by one-way ANOVA. Tukey’s or Bonferroni’s post hoc test were used to calculate statistical differences between the groups. Significant statistical difference was considered at p<0.05. Data are presented as mean ± SEM.

[6] = target: T1, mouse GPR40 (Mus musculus, UniProt Q76JU9); assay: Calcium mobilization assay in HEK293-mGPR40 cells; format: cell-based; details: calcium mobilization
T1 construct: expressed in transfected cells
T1 sequence (Q76JU9 whole entry): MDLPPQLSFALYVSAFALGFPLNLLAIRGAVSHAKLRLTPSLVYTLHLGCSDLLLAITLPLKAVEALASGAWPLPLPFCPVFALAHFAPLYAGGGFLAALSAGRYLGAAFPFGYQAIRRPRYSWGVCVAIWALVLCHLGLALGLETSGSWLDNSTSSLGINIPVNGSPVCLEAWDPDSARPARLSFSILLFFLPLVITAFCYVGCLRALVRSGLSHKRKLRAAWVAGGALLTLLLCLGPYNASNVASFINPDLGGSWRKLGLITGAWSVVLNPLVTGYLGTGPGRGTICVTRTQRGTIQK
Protocol: CHO-hGPR120 and CHO cells were cultured in DMEM/F-12 (Invitrogen) with 10% FBS (Sigma) and HEK293-mGPR40 in DMEM (Invitrogen) supplemented with 10% FBS in 384-well poly-D-Lysin coated microplates (Greiner) at 37°C, 95% humidity and 5% CO2. After 19 hours cell media was replaced with Calcium4 dye (Molecular Devices) in HBSS (Invitrogen), 20 mM HEPES (Invitrogen), pH 7.4 and 1.25 mM Probenecid (Sigma). After 1 hour at room temperature agonists were added and calcium mobilization was detected as change in fluorescence (λex = 488 and λem = 540 nm) using a FLIPR^TETRA (Molecular Devices).

[7] = system: Caco-2 cells; set-up: method as in PMID 26791484; details: cited from earlier work

In the case of Exendin-4, the “cAMP production in islet cells from wt mice (positive control)” value [3] is reported as “significantly stimulate cAMP production” and the “cAMP production in islet cells from GPR120 null mice (positive control)” value [4] is reported as “significantly stimulate cAMP production”.
With Exendin 9–39 the “Insulin secretion, exendin 9–39 alone” value [5] was “no significant effect”.
In the case of `O=C(O)CCc1ccc(NCc2cccc(Oc3ccccc3)c2)cc1` [GW9508], the EC50 [6] is given as 900 ± 300 nM and the “β-arrestin-2 recruitment in Caco-2 cells” value [7] is given as “recruited β-arrestin-2”.
